Measurements: patent publication US7470550B2, “Method of evaluating cell activity” (Toyo Advanced Technologies Co., Ltd., priority 2001, dated 2008)

Tests used:
Format in all cases: cell-based
Mast cells = assay: SPR measurement of reaction of mast cells on an antigen
Procedure: (§1) The method of the invention will be explained in more detail by the following examples, which are not intended to limit the scope of the invention. In the following examples, SPR-CELLIA (Japan Laser Electronic Co.) was used as an SPR analyzer. The sensor chip for amine coupling was prepared as follows.
(§2) In 10 μM solution of 4,4-dithiodibutyric acid in ethanol was immersed a sensor chip and stirred for 30 minutes. Thereafter, the chip was washed with dry ethanol and dried. Water-soluble carbodiimide (25 mg) was dissolved in 1 ml of MilliQ water, and 15mg of N-hydroxysuccinimide in 9 ml of 1,4-dioxane, respectively. Both solutions were mixed immediately before the dried sensor chip was immersed therein and the mixture stirred for 10 minutes. Then, there was added 10 ml of MilliQ water, and the mixture was stirred for 5 minutes. The chip was washed with MilliQ water and preserved in MilliQ water.
Mast cells (2×10^5 cells/ml, 70 μl) were immobilized on a sensor chip in the same manner as in Example 1. IgE was added to a measuring portion, and incubated in a CO2 incubator at 37° C. overnight. The chip was set on an SPR analyzer, and a running buffer (PIPES buffer, pH 7.2) was perfused at a flow rate of 15 μl/min at a fixed temperature of 37° C. Then, 60 μl of 100 ng/ml DNP-HSA (dinitrophenyl-human serum albumin) or 10 μg/ml DNP-lysine was injected, while a running buffer was perfused continuously, and the change of signal was measured. The composition of PIPES (piperaine-N,N′-bis[2-ethane-sulfonic acid]; 1,4-piperzine-diethanesulfonic acid) buffer is as shown in Table 1.

Papilla cells = assay: SPR measurement of reaction of papilla cells (mesenchyme cells) with bFGF, with or without phosphorylation inhibitor; settings: for SPR signal from 10 minutes after the injection: 37° C., 1 μg/ml bFGF alone, or bFGF + 50 μM SU4984
Procedure: as §1, §2
Papilla cells were removed from a petri dish with 0.02% EDTA and suspended in a DMEM10 culture medium. The cells (2×10^5 cells/ml, 400 μl) were immobilized on a sensor chip in the same manner as in Example 1.
PBS was perfused at a flow rate of 15 μl/min at a fixed temperature of 37° C.; 1 μg/ml of bFGF alone was injected into a control portion, and 60 μl of μg/ml bFGF+50 μM phosphorylation inhibitor (SU4984) into a measuring portion; after a lapse of 42 seconds the circuit was closed and the change of signals was measured.

CTLL-2 cells = assay: SPR measurement of reaction of CTLL2 cells (suspended cells) with IL-2; settings: living CTLL-2 cells immobilized on sensor chip, 37° C., PBS perfusion 15 μl/min; IL-2 62.5 ng/ml, 60 μl
From the text: In the method of the invention, cells are immobilized on a analyzer in the same manner as in the usual SPR measurement for vial cells, to which a stimulus as mentioned above is given to determine the signal as a change of permittivity in a conventional procedure.
as §1, §2
The suspension (30 μl)of CTLL-2 cells (2×10^5 cells/ml) in PBS were directly placed onto both of sensor chip-measuring portion and control portion, and the chip was blocked with 50 μl of 1% BSA. The sensor chip was equipped in a flow-cell unit of the SPR analyzer, of which the temperature was set at 37° C. and was perfused with PBS at a flow rate of 15 μl/min.

[1] = 10 μg/ml DNP-lysine, PIPES buffer pH 7.2, 37° C.
[2] = 60 μl of 100 ng/ml DNP-HSA, PIPES buffer pH 7.2, 37° C.

For `N[C@@H](CCCCNc1ccc([N+](=O)[O-])cc1[N+](=O)[O-])C(=O)O` [DNP-lysine], the “primary SPR signal in mast cells” value (Mast cells; [1]) was “primary signal generated by the binding of DNP-lysine was observed” and the “secondary SPR signal in mast cells” value (Mast cells; [1]) was “no secondary signal observed”.

For `O=CN1CCN(c2ccc(/C=C3\C(=O)Nc4ccccc43)cc2)CC1` [SU4984], the “SPR signal from 10 minutes after the injection” value (Papilla cells) was “became plateau” and the “signal transduction caused by the binding of bFGF” value (Papilla cells; bFGF + 50 μM SU4984) was “suppressed”.

For “aFGF: agent which does not bind to CTLL-2 cells”, the “SPR signal (difference between measuring portion and control portion)” value (CTLL-2 cells) was “no signal was observed”.

In the case of “bFGF: growth factor injected onto papilla cells; does not bind to CTLL-2 cells”, the “SPR signal (difference between measuring portion and control portion)” value (CTLL-2 cells) is reported as “no signal was observed” and the “SPR signal from 10 minutes after the injection” value (Papilla cells) is reported as “ascended continuously”.

With “dinitrophenyl-human serum albumin [DNP-HSA]” the “primary SPR signal in mast cells (FIG. 3)” value (Mast cells; 100 ng/ml DNP-HSA, IgE sensitized versus unsensitized cells) was “no primary signal was recorded”, the “SPR signal in IgE sensitized mast cells” value (Mast cells; [2]) was “a strong signal was observed” and the “SPR signal in IgE unsensitized mast cells” value (Mast cells; [2]) was “no characteristic change”.

B1: pleiotrophin: agent which does not bind to CTLL-2 cells (protein, UniProt P21246 33-168, looked up)
Pleiotrophin: GKKEKPEKKVKKSDCGEWQWSVCVPTSGDCGLGTREGTRTGAECKQTMKTQRCKIPCNWKKQFGAECKYQFQAWGECDLNTALKTRTGSLKRALHNAECQKTVTISKPCGKLTKPKPQAESKKKKKEGKKQEKMLD
For B1, the “SPR signal (difference between measuring portion and control portion)” value (CTLL-2 cells) was “no signal was observed”.
